The NIST ThermoML archive (doi:10.1021/je400884v)
± gives the expanded uncertainty stated by the source.

Test: an = ratio of the nth substance listed
Details: 101 kPa, Liquid, Pycnometric method

| SMILES | mass density (293.15 K, a1 = 0.25) [kg/m3] | mass density (293.15 K, a1 = 0.33) [kg/m3] | mass density (303.15 K, a1 = 0.25) [kg/m3] | mass density (303.15 K, a1 = 0.33) [kg/m3] | mass density (313.15 K, a1 = 0.25) [kg/m3] | mass density (313.15 K, a1 = 0.33) [kg/m3] | mass density (323.15 K, a1 = 0.25) [kg/m3] | mass density (323.15 K, a1 = 0.33) [kg/m3] | mass density (293.15 K, a2 = 0.25) [kg/m3] | mass density (293.15 K, a2 = 0.33) [kg/m3] | mass density (303.15 K, a2 = 0.25) [kg/m3] | mass density (303.15 K, a2 = 0.33) [kg/m3] | mass density (313.15 K, a2 = 0.25) [kg/m3] | mass density (313.15 K, a2 = 0.33) [kg/m3] | mass density (323.15 K, a2 = 0.25) [kg/m3] | mass density (323.15 K, a2 = 0.33) [kg/m3] |
| --- | --- | --- | --- | --- | --- | --- | --- | --- | --- | --- | --- | --- | --- | --- | --- | --- |
| C[N+](C)(C)CCO.[Cl-] [choline chloride] + CC(O)CO | 1066.3 ± 1.7 | 1066.6 ± 1.7 | 1060.2 ± 1.7 | 1059.9 ± 1.7 | 1054.1 ± 1.7 | 1053.3 ± 1.7 | 1048 ± 1.7 | 1046.7 ± 1.7 | – | – | – | – | – | – | – | – |
| CC(O)C(C)O (centres undefined) [2,3-butanediol] + C[N+](C)(C)CCO.[Cl-] | – | – | – | – | – | – | – | – | 1035 ± 1.7 | 1046.8 ± 1.7 | 1030.9 ± 1.7 | 1039 ± 1.7 | 1026.5 ± 1.7 | 1035.7 ± 1.7 | 1019.7 ± 1.7 | 1030 ± 1.7 |
| OCCCCO [1,4-butanediol] + C[N+](C)(C)CCO.[Cl-] | – | – | – | – | – | – | – | – | 1044.5 ± 1.7 | 1052.4 ± 1.7 | 1041.1 ± 1.7 | 1049 ± 1.7 | 1035.4 ± 1.7 | 1043.2 ± 1.7 | 1030.6 ± 1.7 | 1038.4 ± 1.7 |
